Measurements as given in US6066628A, “Non-iron metalloporphyrins and methods of use” (Emory University, priority 1998, dated 2000).
Values joined by “and” are separate entries in the source; they are usually repeats but may differ in a detail not shown here. Identical values can stand only once. Like-named read-outs stand apart in the source and are kept apart here.

What was measured:
S. aureus [1] = format: cell-based, Staphylococcus aureus
Y. enterocolitica [2] = test: microbe, parasite or virus in culture; format: cell-based
[3] = tested on: mammalian cells in culture; test: Cytotoxicity in eukaryotic cell cultures; format: cell-based; conditions: human cells in culture
M. smegmatis [4] = format: cell-based, Mycobacterium smegmatis; conditions: for antibacterial activity: M. smegmatis
Y. enterocolitica [5] = test: Disc diffusion sensitivity test; format: cell-based; conditions: disc ~50 μg MP
E. faecalis = test: Disc diffusion sensitivity test; format: cell-based, Enterococcus faecalis; conditions: disc ~50 μg MP; further: key: -: resistant; N: not determined
M tuber. H37Pa = test: Disc diffusion sensitivity test; format: cell-based, Mycobacterium tuberculosis; conditions: disc ~50 μg MP
C. freundii = test: Disc diffusion sensitivity test; format: cell-based, Citrobacter freundii
[6] = tested on: Mycobacterium bovis (BCG); format: cell-based
N. meningitidis = test: Disc diffusion sensitivity test; format: cell-based; conditions: disc ~50 μg MP
M. smegmatis [7] = test: Disc diffusion sensitivity test; format: cell-based, Mycobacterium smegmatis; conditions: disc ~50 μg MP
F. menigosepticum = test: Disc diffusion sensitivity test; format: cell-based, Flavobacterium meningosepticum
E. coli [8] = test: Disc diffusion sensitivity test; format: cell-based, Escherichia coli
S. pyogenes A = test: Disc diffusion sensitivity test; format: cell-based, Streptococcus pyogenes; conditions: disc ~50 μg MP
S. crevisieae = test: Disc diffusion sensitivity test; format: cell-based, Saccharomyces cerevisiae; conditions: S. cerevisiae; disc ~50 μg MP
E. coli EB53 (hemPR^+) = test: Growth inhibition on Nutrient Broth Dipyridyl plates; conditions: NBD 0.1 mM plates
E. aerogenes = test: Disc diffusion sensitivity test; format: cell-based, Enterobacter aerogenes
Staphylococcus xylolus = test: Disc diffusion sensitivity test; format: cell-based; conditions: 50 μg disc
Bacillus subtilis = test: Minimal inhibitory concentration; format: cell-based
S. aureus [9] = test: Disc diffusion sensitivity test; format: cell-based, Staphylococcus aureus
Ps. aeruginosa = test: Disc diffusion sensitivity test; format: cell-based, Pseudomonas aeruginosa; conditions: disc ~50 μg MP; further: key: -: resistant; N: not determined
Y. pseudotuberculosis = format: cell-based
M. bovis = format: cell-based, Mycobacterium bovis; conditions: disc ~50 μg MP
K. oxytoca = test: Disc diffusion sensitivity test; format: cell-based, Klebsiella oxytoca
[10] = tested on: Streptococcus pyogenes JRS4; format: cell-based
Staphylococcus carnosus = test: Disc diffusion sensitivity test; format: cell-based; conditions: 50 μg disc
P. mirabills = test: Disc diffusion sensitivity test; format: cell-based, Proteus mirabilis
M tuber. H37Rv = test: Disc diffusion sensitivity test; format: cell-based, Mycobacterium tuberculosis; conditions: disc ~50 μg MP
B. subtilis = test: Disc diffusion sensitivity test; format: cell-based, Bacillus subtilis; conditions: B. subtilis; disc ~50 μg MP
Neisseria meningitidis = test: Minimal inhibitory concentration; format: cell-based
K. pneumoniae = test: Disc diffusion sensitivity test; format: cell-based, Klebsiella pneumoniae
E. coli [11] = format: cell-based, Escherichia coli; conditions: E. coli DH-5 alpha hemA (Table 6)
S. marcescens = test: Disc diffusion sensitivity test; format: cell-based, Serratia marcescens
patients = patients with compromised kidney function, high dosages; cited from earlier work

C=Cc1c(C)c2[n]3c1C=C1N=C(C=c4c(C)c(C(=O)O)c([n]4[Ga]3[Cl])=C(CC(=O)O)C3=NC(=C2)C(C)C3CCC(=O)O)C(CC)=C1C (centres unmarked) [GA-Ce6, Ga-chlorin e6]
antibacterial activity (S. aureus [1]; S. aureus): active | MIC (S. aureus [1]; S. aureus IR2419, dark (Table 10)): 3.2 µg/mL | antibacterial activity (Y. enterocolitica [2]): significantly less active | MIC (Y. enterocolitica [2]; in µg/mL): 5 and 10 | cytotoxicity [3]: cytotoxic to human cells in culture | antibacterial activity (M. smegmatis [4]): active | MIC (M. smegmatis [4]; M. smegmatis LR222, dark (Table 10)): 0.4 µg/mL

C=CC1=C(C)c2cc3[n-]c(cc4[n-]c(cc5nc(cc1n2)C(C)=C5C=C)c(C)c4CCC(=O)[O-])c(CCC(=O)[O-])c3C.[H+].[H+].[Mn+2] [Mn-PPIX, Manganese protoporphyrin IX]
diameter (mm) of the inhibition zone (Y. enterocolitica [5]): 30 mm | diameter (mm) of the inhibition zone (E. faecalis): - | diameter (mm) of the inhibition zone (M tuber. H37Pa): - | diameter (mm) of the inhibition zone (C. freundii; C. freundii, disc ~50 μg MP): 22 mm | sensitive strains / strains tested (inhibition zones larger or equal 20 mm) (C. freundii; Citrobacter freundii, 50 μg disc): 4/4 | MIC ([6]; M. bovis (BCG) (Table 4)): 0.8 µg/mL | MIC ([6]; M. bovis (BCG), two weeks (Table 5)): 0.8 µg/mL | diameter (mm) of the inhibition zone (N. meningitidis): 18 mm | diameter (mm) of the inhibition zone (M. smegmatis [7]): 25 mm | diameter (mm) of the inhibition zone (F. menigosepticum; F. meningosepticum, disc ~50 μg MP): 17 mm | sensitive strains / strains tested (inhibition zones larger or equal 20 mm) (F. menigosepticum; Flavobacterium meningosepticum, 50 μg disc): 1/1 | diameter (mm) of the inhibition zone (E. coli [8]; E. coli, disc ~50 μg MP): - | sensitive strains / strains tested (inhibition zones larger or equal 20 mm) (E. coli [8]; Escherichia coli, 50 μg disc): 16/18 | diameter (mm) of the inhibition zone (S. pyogenes A): - | diameter (mm) of the inhibition zone (S. crevisieae): - | MIC (S. aureus [1]; S. aureus 8325-4 (Table 4)): 1 µg/mL | MIC (S. aureus [1]; S. aureus 8325-4 (Table 6), in µg/mL): 3 | MIC (S. aureus [1]; S. aureus 8325-4, 20 to 24 hours (Table 5)): 3 µg/mL | Minimal inhibitory concentration (MIC) (S. aureus [1]; methicillin-resistant S. aureus IR219, Nutrient broth (Table 2)): 3.2 µg/mL | inhibition of growth (E. coli EB53 (hemPR^+)): inhibited growth | Minimal inhibitory concentration (MIC) (Y. enterocolitica [2]): 0.4 | antibacterial activity (Y. enterocolitica [2]): inhibitory | diameter (mm) of the inhibition zone (E. aerogenes; E. aerogenes, disc ~50 μg MP): - | sensitive strains / strains tested (inhibition zones larger or equal 20 mm) (E. aerogenes; Enterobacter aerogenes, 50 μg disc): 1/1 | sensitive strains / strains tested (inhibition zones larger or equal 20 mm) (Staphylococcus xylolus): 1/1 | MIC (Bacillus subtilis; B. subtilis 3G18, 20 to 24 hours (Table 5)): 1 µg/mL | MIC (Bacillus subtilis; Bacillus subtilis (Table 4)): 1 µg/mL | diameter (mm) of the inhibition zone (S. aureus [9]; S. aureus, disc ~50 μg MP): 23 mm | sensitive strains / strains tested (inhibition zones larger or equal 20 mm) (S. aureus [9]; Staphylococcus aureus, 50 μg disc): 9/9 | diameter (mm) of the inhibition zone (Ps. aeruginosa): - | MIC (Y. pseudotuberculosis; Y. pseudotuberculosis YP66 (Table 4)): < 0.1 µg/mL | MIC (Y. pseudotuberculosis; Y. pseudotuberculosis YP66 (Table 6), in µg/mL): 1-2 | MIC (Y. pseudotuberculosis; Y. pseudotuberculosis, iron restricted NBD 0.1 mM, 20 to 24 hours (Table 5)): 1 to 2 µg/mL | diameter (mm) of the inhibition zone (M. bovis): 35 mm | diameter (mm) of the inhibition zone (K. oxytoca; K. oxytoca, disc ~50 μg MP): - | sensitive strains / strains tested (inhibition zones larger or equal 20 mm) (K. oxytoca; Klebsiella oxytoca, 50 μg disc): 1/1 | sensitivity ([10]; S. pyogenes): resistant | MIC ([10]; S. pyogenes JRS4 (Table 4)): > 4 µg/mL | MIC ([10]; S. pyogenes JRS4, 20 to 24 hours (Table 5)): > 4 µg/mL | sensitive strains / strains tested (inhibition zones larger or equal 20 mm) (Staphylococcus carnosus): 1/1 | diameter (mm) of the inhibition zone (P. mirabills; P. mirabilis, disc ~50 μg MP): 22 mm | sensitive strains / strains tested (inhibition zones larger or equal 20 mm) (P. mirabills; Proteus mirabilis, 50 μg disc): 2/2 | diameter (mm) of the inhibition zone (M tuber. H37Rv): - | diameter (mm) of the inhibition zone (B. subtilis): 25 mm | MIC (Neisseria meningitidis; N. meningitidis IR1072, 20 to 24 hours (Table 5)): 2 µg/mL | MIC (Neisseria meningitidis; Neisseria meningitidis (Table 4)): 2 µg/mL | diameter (mm) of the inhibition zone (K. pneumoniae; K. pneumoniae, disc ~50 μg MP): - | sensitive strains / strains tested (inhibition zones larger or equal 20 mm) (K. pneumoniae; Klebsiella pneumoniae, 50 μg disc): 9/13 | MIC (E. coli [11]): > 10 µg/mL | antibacterial activity (M. smegmatis [4]): inhibitory | MIC (M. smegmatis [4]; M. smegmatis LR222 (Table 4)): 0.5 µg/mL | Minimal inhibitory concentration (MIC) (M. smegmatis [4]; M. smegmatis LR222, LB + Tween 80 (Table 2)): 0.8 µg/mL | diameter (mm) of the inhibition zone (S. marcescens; S. marcescens, disc ~50 μg MP): - | sensitive strains / strains tested (inhibition zones larger or equal 20 mm) (S. marcescens; Serratia marcescens, 50 μg disc): 2/3

O=[N+]([O-])[O-].O=[N+]([O-])[O-].O=[N+]([O-])[O-].[Ga+3] [gallium nitrate, Gallium nitrate]
major complication of treatment (patients): Reversible nephrotoxicity
